Assay results from article PMC9127252, “Synthesis of sulfur karrikin bioisosteres as potential neuroprotectives” (Beilstein Journal of Organic Chemistry, 2022).

Assays:
[1] = test system: AChE; set-up: method as in PMID 31014820; settings: cited from earlier work; for inhibition effects on AChE: in words
[2] = test system: MAO-B; set-up: method as in PMID 31014820; settings: cited from earlier work
[3] = test system: seed germination; set-up: method as in doi:10.1016/j.sajb.2013.12.003; settings: compared with KAR1; cited from earlier work
[4] = biological target: T1, AChE from Electrophorus electricus (Electrophorus electricus, UniProt O42275); experiment: biochemical; settings: for AChE residual activity at 10 µM (% of untreated): 10 µM compound, t = 25 min, triplicates, mean ± SD; for inhibition at 10 µM: read-out: AChE inhibition at 10 µM screening concentration
T1 construct: purchased Sigma-Aldrich, Germany
T1 sequence (O42275 24-633): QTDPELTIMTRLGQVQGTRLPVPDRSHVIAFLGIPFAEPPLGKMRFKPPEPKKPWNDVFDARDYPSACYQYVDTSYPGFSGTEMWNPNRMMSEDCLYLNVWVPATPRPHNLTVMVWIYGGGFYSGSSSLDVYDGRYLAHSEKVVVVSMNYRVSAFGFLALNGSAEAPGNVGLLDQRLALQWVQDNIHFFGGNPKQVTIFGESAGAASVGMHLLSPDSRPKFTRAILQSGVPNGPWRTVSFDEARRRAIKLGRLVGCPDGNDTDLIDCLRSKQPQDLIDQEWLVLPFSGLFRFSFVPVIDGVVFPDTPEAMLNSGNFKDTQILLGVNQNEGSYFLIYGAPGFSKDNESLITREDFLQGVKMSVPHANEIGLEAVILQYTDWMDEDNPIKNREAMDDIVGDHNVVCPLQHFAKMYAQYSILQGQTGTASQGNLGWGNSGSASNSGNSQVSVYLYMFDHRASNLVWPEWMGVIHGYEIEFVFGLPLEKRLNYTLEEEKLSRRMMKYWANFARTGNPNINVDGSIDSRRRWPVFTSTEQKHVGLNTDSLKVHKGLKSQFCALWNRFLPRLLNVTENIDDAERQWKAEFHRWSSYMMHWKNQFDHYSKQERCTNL
Experimental: The compounds were further tested for their ability to inhibit AChE in vitro [24].
Acetylcholine esterase (AChE) assay
Determination of AChE activity was based on the original method by Ellman adapted for 384 well plate format. The plates were first pre-spotted with 20 nL of 10 mM DMSO solution of the compound with the use of ECHO 550® liquid handler (to reach 10 µM final concentration). Master mix solution was prepared alongside and kept on ice until dispensed in the wells. The mix consisted of 1.5 mM acetylthiocholine iodide (ATCI), 1.5 mM 5,5-dithiobis(2-nitrobenzoic acid) (DTNB) and 30 mU/mL AChE from Electrophorus electricus (Sigma-Aldrich, Germany) in 50 mM TRIS-Cl buffer, pH 7.5, containing 0.04% BSA, 50 mM NaCl and 10 mM MgCl2. 20 µL of the master mix was then dispensed into the wells of a transparent flat-bottom 384-well plate (Nunc). The microplate was briefly but vigorously mixed on an orbital shaker and placed into a Tecan SPARK microplate reader where the absorbance at 405 nm was continuously monitored for 25 min (linear range). In parallel, the no-enzyme control reaction was run to exclude interference of the compounds with the assay. The background value was subtracted from the signal of the enzyme-containing wells. Enzyme inhibition was expressed as a signal percentage compared to an uninhibited reaction at t = 25 min: % residual activity = (A405 sample/A405 control) × 100. […]
were analysed with the use of Prism 9 (GraphPad Inc., San Diego, USA). The values were measured in triplicates, and the results are p resented as means ± SD. […]

| Structure (SMILES) | AChE residual activity at 10 µM (% of untreated) [4] | other results |
| --- | --- | --- |
| Cc1cc2c(C)c(=O)oc-2co1 [Compound 3, reference compound] | – | IC50 [1]: 370 ± 20 nM; inhibition effects on AChE [1]: submicromolar |
| Cc1c2ccscc-2oc1=O [Compound 8, 3-methyl-2H-thiopyrano[3,4-b]furan-2-one] | – | IC50 [2]: 30 nM; IC50 [1]: 80 ± 6 nM; inhibition effects on AChE [1]: submicromolar; germination activity [3]: lower germination activity than KAR1 |
| Cc1c2ccocc-2oc1=S [Compound 9] | 95 ± 8 % of untreated | – |
| S=c1cc2ccocc-2o1 [Compound 10] | 99 ± 3 % of untreated | – |
| Cc1cc2c(C)c(=S)oc-2co1 [Compound 11] | 93 ± 3 % of untreated | – |
| Cc1occc2c(C)c(=S)oc1-2 [Compound 12] | 91 ± 2 % of untreated | – |
| Cc1cc2c(C)c(=O)oc-2cs1 [Compound 20] | 90 ± 2 % of untreated | – |
| Cc1sccc2c(C)c(=O)oc1-2 [Compound 21] | 91 ± 2 % of untreated | – |
| O=c1cc2ccscc-2o1 [Compound 26] | 99 ± 0.4 % of untreated | – |
| Cc1c2ccscc-2oc1=S [Compound 27] | 97 ± 5 % of untreated | – |
| Cc1cc2c(C)c(=S)oc-2cs1 [Compound 28] | 85 ± 1 % of untreated | inhibition at 10 µM [4]: ~15% |
| Cc1sccc2c(C)c(=S)oc1-2 [Compound 29] | 86 ± 2 % of untreated | inhibition at 10 µM [4]: ~15% |
| S=c1cc2ccscc-2o1 [Compound 30] | 92 ± 1 % of untreated | – |
